Measured values as given in patent US20040023984A1, “Compounds for the treatment of alzheimer's disease” (priority 1987, published 2004).

Experiments:
cholinesterase = conditions: relative to galanthamine; cited from earlier work
[1] = system: respiration and heart activity; conditions: relative to galanthamine; cited from earlier work
[2] = 3 mg/kg; cited from earlier work
acetylcholinesterase [3] = target: T1, acetylcholinesterase (Homo sapiens, UniProt P22303); test: Acetylcholinesterase Inhibition Assay (other cholinesterase activity tests, may be less reliable); format: biochemical; conditions: results may be less reliable
T1 sequence (P22303 32-614, species assumed): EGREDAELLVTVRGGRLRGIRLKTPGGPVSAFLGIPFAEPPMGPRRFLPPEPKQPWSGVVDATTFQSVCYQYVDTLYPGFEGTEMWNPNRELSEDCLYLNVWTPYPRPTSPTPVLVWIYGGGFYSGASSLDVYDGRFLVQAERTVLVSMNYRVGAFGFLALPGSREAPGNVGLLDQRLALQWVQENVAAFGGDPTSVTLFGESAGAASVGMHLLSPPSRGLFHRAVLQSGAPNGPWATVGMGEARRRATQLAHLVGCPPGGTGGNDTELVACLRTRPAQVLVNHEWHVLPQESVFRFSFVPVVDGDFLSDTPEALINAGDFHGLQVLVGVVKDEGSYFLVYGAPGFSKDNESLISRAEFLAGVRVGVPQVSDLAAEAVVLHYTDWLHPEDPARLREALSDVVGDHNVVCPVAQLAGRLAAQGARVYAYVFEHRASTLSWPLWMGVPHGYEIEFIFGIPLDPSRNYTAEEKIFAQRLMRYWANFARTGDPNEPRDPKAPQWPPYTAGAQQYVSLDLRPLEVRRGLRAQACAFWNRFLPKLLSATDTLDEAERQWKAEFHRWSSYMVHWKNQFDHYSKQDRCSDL

[4] = system: nucleas basalis-lesioned animals; test: Nucleus basalis model, passive avoidance in shuttle box; format: in vivo, mice
Description: The following test provides a good animal model for Alzheimer's disease in humans: A selective lesion is placed in a subcortical nucleus (nucleus basalis of Meynert) with a resultant cortical cholinergic deficiency, similar in magnitude to that seen in early to moderate stage Alzheimer's disease. Numerous behavioral deficits, including the inability to learn and retain new information, characterizes this lesion. Drugs that can normalize these abnormalities would have a reasonable expectation of efficacy in Alzheimer's disease. Haroutunian, V, Kanof P, Davis, K L: Pharmacological alleviations of cholinergic-lesion-induced memory defects in rats. Life Sciences, 37:945-952 (1985).
(§1) Galanthamine n-butyl carbamate was tested in the nucleus basalis model for galanthamine discussed in the Hartounian et al paper noted above. In the test, mice were given the drug three and ½ hours before two learning trials in a shuttle box. They are placed in the lighted compartment and receive an electric footshock when they cross into the preferred side, the dark. The next day, they are again placed in the lighted compartment and the time to enter the dark is noted. The latency to enter the dark compartment is the basis for this figure. […] Below 50 mg/kg no side effects were noted.

mice = test: Cholinergic side effects in mice at high doses; format: in vivo
Experimental: as §1

normal mice = test: Passive avoidance shuttle box test using normal mice; format: in vivo
Experimental: as §1
In a similar test using normal mice, the mice remained in the light (less preferred) side of the shuttle box for over six minutes at the best dose (0.1 mg/kg) as compared to a best dose result of about 90 seconds for the nucleas basalis-lesioned animals.

acetylcholinesterase [5] = target: T1, acetylcholinesterase; test: Inhibition of acetylcholinesterase, procedure of Ellman (acetylthiocholine substrate, photometric); format: biochemical
Experimental: The anticholinesterase activity of the compounds prepared in the above examples was assayed by an assay for inhibition of acetylcholinesterase following the procedure of G. Ellman, […], 7:88-95 (1961) Acetylthiocholine serves as substrate since it acts like acetylcholine. Acetylcholinesterase cleaves it to thiocholine and acetate which react with dithiobisnitrobenzoate to form a yellow color which is measured photometrically.
This assay was carried out at dilution of 10^−5 molar
The compounds were tested in the assay described after Example 5 but at different concentrations. The results obtained were as follows:
Further compounds were prepared by methods analogous to those described above and were tested in a cholinesterase assay as described above.

EEG—recorded activity = conditions: relative to galanthamine; cited from earlier work
[6] = system: scopolamine induced memory deficit; test: Scopolamine dementia dark avoidance test (passive avoidance); format: in vivo, male CFW mice; conditions: for # > CO/n / % > CO / Mean Latency: Table 2, cut-off 41 seconds
Experimental: Furnished data on the effects of these compound on cholinesterase activity were used to determine doses for testing. […] The two other compounds were tested at 1,3 and 10 mg/kg sc and did antagonize the scopolamine induced deficit.
Training and testing of passive avoidance were conducted in a two-compartment (light/dark) test cage. On the training day, mice were individually placed in the light half of the cage and after entering the dark compartment, were administered a 3 sec 0.4 mA footshock. They were then removed from the test chamber and returned to their home cages. Twenty-four hours later, the animals were again placed in the lighted half of the test cage and the latency to enter the dark compartment was measured.
All animals in each group of 15 naive male CFW mice were injected twice subcutaneously. Thirty minutes prior to training, animals were administered 3 mg/kg scopolamine HBr or its 0.9% NaCl vehicle. Five minutes prior to training, independent groups were administered one of three doses of the test compounds or the distilled water vehicle. One group in each experiment received vehicle twice, another group received scopolamine and the dH2O vehicle; the remaining groups received scopolamine and a test compound.
A cutoff value (CO), defined as the second-longest latency in the scopolamine/vehicle treated group, was used to determine whether a compound was active. If 20% or more of the animals in a treatment group had latencies greater than the CO value, the compound was considered active at that dose.
The three compounds were tested in two separate experiments; the results are presented below in Tables 1 and 2. Doses considered active are marked with an asterisk (*).

**Q.** With `COc1ccc2c3c1OC1CC(=O)C=C[C@@]31CCN(C)C2` (stereo partly drawn) [Narwedine, narwedine] as the compound, how does the “anti-cholinesterase activity as % of that of galanthamine” value (cholinesterase) read?
**A.** The value was “less than 1%”.

**Q.** What about the “cholinergic effects on respiration and heart activity, lower than galanthamine” value [1] of the same compound?
**A.** Its value is 50-80%.

**Q.** And the anticurare activity [2]?
**A.** The anticurare activity was “weak”.

**Q.** Which “anti-cholinesterase activity as % of that of galanthamine” value (cholinesterase) does the source give for `COc1ccc2c3c1O[C@H]1C[C@H](O)C=C[C@@]31CCN(C)C2` [epigalanthamine] here?
**A.** Its value is 10%.

**Q.** Which “% Inhibition at 10^−6” value (acetylcholinesterase [3]; 10^−6) does the source give for `CCCCNC(=O)O[C@@H]1C=CC23CCN(C)Cc4ccc(OC)c(c42)O[C@@H]3C1` (stereo partly drawn) [galanthamine n-butyl carbamate] here?
**A.** The value was 37%.

**Q.** And the “% Inhibition at 10^−7” value (acetylcholinesterase [3]; 10^−7)?
**A.** Its value is 9%.

**Q.** What about the “% Inhibition at −10^−5” value (acetylcholinesterase [3]; −10^−5) of the same compound?
**A.** Its value is 44%.

**Q.** What about the “best dose result, latency to enter the dark compartment” value ([4]; nucleas basalis-lesioned animals, best dose) of the same compound?
**A.** Its value is “about 90 seconds”.

**Q.** And the “passive avoidance result compared with galanthamine” value ([4]; nucleus basalis model, mice)?
**A.** Its value is “comparable with those obtained with galanthamine”.

**Q.** What about the “best dose in passive avoidance test” value ([4]; nucleus basalis model, mice, drug given three and ½ hours before learning trials) of the same compound?
**A.** The value was 0.5 mg/kg.

**Q.** And the “dose below which no side effects were noted” value (mice; mice)?
**A.** Its value is “Below 50 mg/kg”.

**Q.** What about the “side effects and lethality” value (mice; two mice given 100 mg/kg) of the same compound?
**A.** Its value is “showed cholinergic side effects but neither died”.

**Q.** And the “best dose in passive avoidance test” value (normal mice)?
**A.** Its value is 0.1 mg/kg.

**Q.** What about the “time mice remained in the light side of the shuttle box” value (normal mice; best dose (0.1 mg/kg)) of the same compound?
**A.** The value was “over six”.

**Q.** What about the “inhibition of acetylcholinesterase at concentration 10^−5” value (acetylcholinesterase [5]; 10^−5 molar) of the same compound?
**A.** Its value is 75.

**Q.** Which “concentration required to stimulate EEG-recorded activity, times that required for galanthamine” value (EEG—recorded activity) does the source give for `COc1ccc2c3c1OC1CC(O)CC[C@@]31CCN(C)C2` (stereo partly drawn) [lycoramine] here?
**A.** Its value is “about five”.

**Q.** What about the “antagonism of scopolamine induced memory deficit” value ([6]; 10 mg/kg sc) of the same compound?
**A.** The value was “active”.

**Q.** What about the “# > CO/n” value ([6]; scopolamine + 1 mg/kg sc) of the same compound?
**A.** The value was 1/15.

**Q.** What about the “% > CO” value ([6]; scopolamine + 1 mg/kg sc) of the same compound?
**A.** Its value is 7%.

**Q.** And the “Mean Latency” value ([6]; scopolamine + 1 mg/kg sc)?
**A.** Its value is 26 s.

**Q.** What about the “# > CO/n” value ([6]; scopolamine + 3 mg/kg sc) of the same compound?
**A.** The value was 0/15.

**Q.** And the “Mean Latency” value ([6]; scopolamine + 3 mg/kg sc)?
**A.** The value was 19 s.

**Q.** And the “% > CO” value ([6]; scopolamine + 3 mg/kg sc, * = dose considered active)?
**A.** The value was 0%.

**Q.** What about the “# > CO/n” value ([6]; scopolamine + 10 mg/kg sc) of the same compound?
**A.** The value was 4/15.

**Q.** What about the “Mean Latency” value ([6]; scopolamine + 10 mg/kg sc) of the same compound?
**A.** Its value is 48 s.

**Q.** And the “% > CO” value ([6]; scopolamine + 10 mg/kg sc, * = dose considered active)?
**A.** Its value is 27* %.

**Q.** What about the inhibition at 10 µM (acetylcholinesterase [5]; 10^−5 M, further compounds, read-out: cholinesterase inhibition at 10^−5 M) of the same compound?
**A.** The inhibition at 10 µM was 30%.
